Laboratory results as given in patent US20200370012A1, “METHODS OF MAKING CHIMERIC ANTIGEN RECEPTOR-EXPRESSING CELLS” (Novartis AG, priority 2017, published 2020).

How the values were obtained:
Anti-CD19BBζ CAR T cells = assay: Metabolic modulation of CAR T cells: differentiation phenotype by flow cytometry after 9 days of culture with or without 2-DG; assay type: cell-based, human; conditions: FIG. 4 and FIG. 5
Experimental: The following T-cell subsets are shown: naïve-like (CCR7+CD45RO−); central memory (CCR7+CD45RO+); effector memory (CCR7−CD45RO+); and effector (CCR7−CD45RO−). Anti-CD19BBζ CAR T cells were generated as in the presence or absence of the glycolysis inhibitor 2-deoxyglucose (2-DG; Sigma-Aldrich). Following 9 days of culture, the differentiation phenotype of these cells was determined by flow cytometry. CAR+T-cells were sorted on the FACSAria II cell sorter (BD Biosciences) and combined 1:1 with irradiated K562 cells engineered to express CD19 (K562-CD19). CTL019cells were re-stimulated ×3 with K562-CD19 targets. During the proliferation assay, absolute cell counts were obtained using the Luna automated cell counter (Logos Biosystems).

STAT3 (pY705) = biological target: T1, STAT3 (pY705) (Homo sapiens, UniProt P40763); assay: Measurement of pSTAT3 by Phosflow intracellular staining; assay type: cell-based
T1 construct: CTL019 cells from CLL patient infusion products were thawed and stimulated with anti-idiotypic antibody-coated beads or mock beads; endogenous in cells; host or cells: CTL019 (anti-CD19 4-1BB/CD3zeta CAR) T cells made from autologous T cells of CLL patients; in some experiments FACS-sorted CD8+ T cell subsets
Experimental: FIGS. 7A-7D show IL-6/STAT3 pathway enrichment in CAR T cells. […] Graphs show mean with s.e.m. […] Bars represent the mean and s.e.m. […] Pooled data from patients with highly functional (CR, n=3; PRTD, n=2) versus poorly functional (PR, n=3; NR, n=11) CAR T cells is shown in the box plots (right panel). Whiskers represent min. to max.; boxes represent 25-75 percentiles; the middle line indicates the median. The change in fluorescence intensity (MFI) was calculated by subtracting the […].
FIGS. 11A-11B show levels of pSTAT3 in CD27+ PD-1− CD8 T cells in response to IL-6. […] Summary of IL-6-induced pSTAT3 levels in CD8+ T cell subsets defined by CD27 and PD-1 expression from n=4 different subjects is shown in the right panel. The change in mean fluorescence intensity (AMFI) was determined by subtracting the […].
(§1) CTL019 cells from CLL patient infusion products were thawed and stimulated with anti-idiotypic antibody-coated beads or mock beads. […] The ability of Stattic to inhibit STAT3 signaling was assessed by Phosflow staining as described above. […] Absolute cell numbers and viability were simultaneously measured during the course of CAR T cell expansion using the Luna automated cell counter (Logos Biosystems).

CTL019 cells = assay: Serial re-stimulation assay with irradiated K562-CD19 cells: CTL019 cells made with or without Stattic or recombinant IL-6 (cell numbers and viability); assay type: cell-based, human; conditions: exogenous IL-6 added to culture media during manufacturing of CTL019 cells; FIG. 9
Experimental: FIGS. 8A-8C show inhibition of the STAT3 pathway in CAR T cells. […] CAR-specific stimulations were performed in the presence or absence of 5 μM Stattic, a small molecule inhibitor of STAT3 activation. […] CAR T cells from this representative subject were then serially re-stimulated with K562 cells engineered to express CD19 on days 0, 7 and 12 of the culture, as indicated by the arrows.
CTL019 cells from this representative subject were then serially re-stimulated with K562 cells engineered to express CD19 or mesothelin (negative control) on days 0, 7, and 12 of the culture, as indicted by the arrows.
as §1, with “beads. For some experiments, cells were stimulated for 10 minutes with recombinant human IL-6 (Miltenyi Biotec.) at a final concentration of 10 ng/mL. In cell subset evaluation experiments, populations of interest were stained for surface markers and sorted on a FACSAria II cell sorter (BD Biosciences) prior to acute stimulation with IL-6.” for “beads.”

T1 sequence (P40763 whole entry, the tested form may be a part): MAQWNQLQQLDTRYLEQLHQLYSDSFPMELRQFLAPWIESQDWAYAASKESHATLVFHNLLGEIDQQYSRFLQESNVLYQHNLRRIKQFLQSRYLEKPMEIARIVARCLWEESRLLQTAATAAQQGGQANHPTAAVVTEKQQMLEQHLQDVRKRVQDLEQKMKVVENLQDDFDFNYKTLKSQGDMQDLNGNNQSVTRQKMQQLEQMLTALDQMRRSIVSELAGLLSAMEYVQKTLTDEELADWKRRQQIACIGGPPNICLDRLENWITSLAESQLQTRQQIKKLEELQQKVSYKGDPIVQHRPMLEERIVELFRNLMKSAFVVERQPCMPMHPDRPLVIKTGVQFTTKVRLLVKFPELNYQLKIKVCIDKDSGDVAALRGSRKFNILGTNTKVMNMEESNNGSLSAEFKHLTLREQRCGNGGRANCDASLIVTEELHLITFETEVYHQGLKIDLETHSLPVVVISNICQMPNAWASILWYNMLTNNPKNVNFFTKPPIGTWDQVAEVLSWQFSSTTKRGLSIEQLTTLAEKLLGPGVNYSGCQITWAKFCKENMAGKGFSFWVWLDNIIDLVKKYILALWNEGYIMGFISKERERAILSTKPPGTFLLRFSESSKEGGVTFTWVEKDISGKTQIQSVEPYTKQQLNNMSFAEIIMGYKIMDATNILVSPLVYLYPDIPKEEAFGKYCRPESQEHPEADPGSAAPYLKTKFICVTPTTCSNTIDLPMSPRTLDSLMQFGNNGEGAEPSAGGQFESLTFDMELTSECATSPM

Molecule | effector differentiation (Anti-CD19BBζ CAR T cells; CAR T cells cultured 9 days in presence vs absence of 2-DG) | frequencies of CAR T cells with a central memory phenotype (Anti-CD19BBζ CAR T cells; CCR7+CD45RO+, cultured 9 days in presence vs absence of 2-DG) | pSTAT3 activity (STAT3 (pY705); exogenous IL-6 added to culture media during manufacturing of CTL019 cells) | pSTAT3 in response to IL-6 stimulation (STAT3 (pY705); sorted CD27+PD-1− CD8+ subset, recombinant IL-6 10 ng/ml, FIG. 11A) | absolute numbers of CAR T cells following repeated stimulation with CD19-expressing tumor targets (CTL019 cells) | expansion capacity following repeated stimulation with CD19-expressing tumor targets (CTL019 cells)
OC[C@H]1O[C@H](O)C[C@@H](O)[C@@H]1O [2-DG, (4R,5S,6R)-6-(hydroxymethyl)oxane-2,4,5-triol] | decreased | increased |  |  |  | 
IL-6: recombinant human IL-6 (Miltenyi Biotec.), a Stat3 activator |  |  | Increasing | upregulates | elevated | elevated
